This note sets out measurements from patent publication US20250051762A1, “PLATFORM USING DNA-ENCODED SMALL MOLECULE LIBRARIES AND RNA SELECTION TO DESIGN SMALL MOLECULES THAT TARGET RNA” (University of Florida Research Foundation, Incorporated, priority 2021, published 2025).

Assay [1] concerns 3×3 ILL. In words: 2DCS selection of microarray-immobilized compounds with 32P-labeled 3×3 ILL, Hit-StARTS analysis of RNA-seq. It counts as binding. The conditions noted are these: Zobs >4. The procedure:
The interaction landscape for the ten representative DEL compounds emerging from the FACS screen were then defined by 2DCS (22). In 2DCS, small molecules are site-specifically conjugated to a microarray surface and then probed for binding to an RNA library under highly stringent conditions (FIGS. 2-B & S6). That is, the array is co-incubated with a radioactively labeled RNA library and an excess of competitor oligonucleotides that mimic regions common to all library members. […] To enable site-specific immobilization of compounds 1-10, a C-terminal alkyne handle was installed for CuAAC click (30) coupling to azide-displaying array surfaces. Installation of the alkyne was accomplished by coupling of bromoacetic acid onto rink amide resin followed by nucleophilic displacement with propargylamine prior to the synthesis of the SPDEL compounds (FIG. 2A).
All ten compounds bound to the 3×3 ILL under the highly stringent conditions described above, almost all dose-dependently (FIG. 2B). The RNAs bound to each small molecule were harvested, reverse transcribed into DNA, and sequenced by RNA-seq. The resulting data set was statistically analyzed by using High Throughput Structure-Activity Relationships Through Sequencing (Hit-StARTS) (31) in which the relative frequency of each selected RNA is compared to the frequency of that RNA in the starting library (pooled population comparison). (31) The statistical significance of the enrichment of selected RNAs is quantified by Zobs, which correlates with affinity and selectivity. (31) Here, a cut-off of Zobs >4 was employed, which was empirically determined from measured affinities via evaluation of compound 9 binding with potential RNA motifs extracted from the 2DCS (FIGS. 2-B, 13, & 14). […] This cut-off afforded, on average, 60±40 (range: 6-155) preferred, or privileged, RNA 3D folds for each compound. Compound 6 bound to largest number of RNA targets (n=155) while compound 9 bound the fewest (n=6) (FIG. 14). […]

The subject of assay [2] is pri-miR-27a. Briefly: RT-qPCR of pri- and mature miR-27a in MDA-MB-231 TNBC cells. The class given is cell-based, human. The note with it: MDA-MB-231, RT-qPCR. The procedure:
Cell lines. Compounds were tested in MDA-MB-231 TNBC cells (HTB-26, ATCC), LNCaP metastatic prostate cancer cells (gifted from Junli Luo lab), MCF-7 (HTB-22, ATCC) breast cancer cells, HeLa cervical adenocarcinoma cells (CCL-2, ATCC), and MCF-10a, a model of healthy breast epithelial cells (CRL-10317, ATCC).
Cell culture and compound treatment. All cells were maintained at 37° C. with 5% CO2. MDA-MB-231 and LNCaP cells were cultured in RPMI 1640 medium with L-glutamine & 25 mM HEPES (Corning) supplemented with 10% (v/v) fetal bovine serum (FBS; Sigma) and 1× (v/v) Antibiotic-Antimycotic solution (Corning). MCF-7 and HeLa cells were cultured in DMEM medium with 4.5 g/L glucose (Corning), supplemented with 10% FBS, 1× (v/v) Glutagro (Corning), and 1× (v/v) Antibiotic-Antimycotic solution. MCF10a cells were cultured in DMEM/F12 50/50 with L-glutamine & 15 mM HEPES (Corning), supplemented with 10% FBS, 20 ng/mL human epidermal growth factor (Pepro Tech Inc.), […] hydrocortisone (Pfaltz & Bauer), 100 ng/mL cholera toxin (Sigma-Aldrich), 10 μg/mL insulin (Sigma-Aldrich), and 1× (v/v) Antibiotic-Antimycotic solution.
MCF-10a cells were transfected with plasmids to express pri-miR-27a and mutant pri-miR-27a in 12- or 24-well plates with Lipofectamine 2000 per the manufacturer's protocol. For treatment of compounds, stocks were diluted in growth medium and added to cells for 48 h. The miRCURY miR-27a LNA inhibitor (QIAGEN, Cat #339121) was used as a positive control by diluting in growth medium to a final concentration of 1 nM. The miRCURY LNA Negative Control (QIAGEN, Cat #YI00199007-DDA) was used as a negative control, which has also diluted in growth medium to a final concentration of 1 nM.
Analysis of mRNA abundance: Each cell line was grown as a monolayer in 12- or 24-well plates and treated as described in “Cell culture and compound treatment”. After 48 h, the cells were lysed, and total RNA was harvested using a Zymo Quick RNA Miniprep Kit per the manufacturer's protocol. To measure the abundance of mature miRNAs, approximately 250 ng of total RNA was reverse transcribed using the High Flex Buffer provided in a miScript II RT Kit (Qiagen) per the manufacturer's protocol (10 μL total reaction volume). For pri-miRNAs and mRNA, approximately 300 ng of total RNA was reverse transcribed using a qScript cDNA synthesis kit (10 μL total reaction volume, Quanta BioSciences). For all types of RNAs, 2 μL of the RT reaction was used for qPCR using SYBR Green Master Mix and a QuantStudio™ 5 Real-Time PCR System. Relative abundance of mature miRNAs was calculated by normalizing to RNU6, and relative abundance for pri-miRNAs and mRNAs was calculated by normalizing to 18S ribosomal RNA, using the […]. (12)
A general note: Quantitative PCR measures a nucleic acid by following its amplification.

With `C#CCN(CC(N)=O)C(=O)C[C@H](Cc1c[nH]c2ccccc12)NC(=O)[C@@H]1C[C@H](NC(=O)Cn2c(=O)[nH]c3ccccc3c2=O)CN1` [Compound 9], the “number of RNA motifs bound that are unique to the compound” value in assay [1] amounted to 2. The “inhibition of miR-27a (comparison of 5, 7, 9, 10)” value in assay [2] is “inhibited miR-27a to a greater extent than 5 and 7”. Further, the pri-miR-27a levels entry in assay [2] (48 h) is “increased”. The IC50 (in general, the concentration needed to halve the response being measured) in assay [2] (48 h, read-out: IC50 for reduction of mature miR-27a levels) was about 1000 nM.
